Structures are written as SMILES. Where two headings read alike, the source gives them in different places.

Test [1] addresses T1, 17β-hydroxysteroid dehydrogenase 1 (17β-HSD1) (Homo sapiens, UniProt P14061).
T1 construct: gene HSD17B1
T1 sequence (P14061 2-328): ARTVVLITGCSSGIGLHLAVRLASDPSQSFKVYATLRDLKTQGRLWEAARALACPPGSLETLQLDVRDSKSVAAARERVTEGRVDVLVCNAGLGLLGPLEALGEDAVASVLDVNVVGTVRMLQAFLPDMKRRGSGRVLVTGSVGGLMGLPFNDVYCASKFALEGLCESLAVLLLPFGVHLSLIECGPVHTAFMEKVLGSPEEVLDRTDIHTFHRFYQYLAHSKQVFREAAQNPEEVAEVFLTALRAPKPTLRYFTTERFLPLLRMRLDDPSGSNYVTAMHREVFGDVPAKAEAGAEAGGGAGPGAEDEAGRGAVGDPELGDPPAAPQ
The test is described as follows: biochemical. Set-up: species or system HEK-293 (transiently transfected); Radiolabeled estrone to estradiol conversion (200 nM, NADPH) in lysates of 17β-HSD1-transfected cells; TLC and scintillation counting. Here is the method:
Lysate activity assays were performed as previously described. Briefly, HEK-293 cells (ATCC) were transiently transfected with expression constructs for human 17β-HSD1 or 17β-HSD2 using the calcium phosphate precipitation method. Lysates of HEK-293 cells expressing 17β-HSD1 or 17β-HSD2 were incubated at 37 °C for 10 min in TS2 buffer (100 mM NaCl, 1 mM EDTA, 1 mM EGTA, 250 mM sucrose, 1 mM MgCl2, 20 mM Tris-HCl, pH 7.4), containing either the inhibitor at the respective concentration or solvent (0.2% DMSO). 17β-HSD1 activity was determined in the presence of 200 nM estrone, including 50 nCi of [2,4,6,7-^3H]-estrone and 500 μM NADPH. Whereas, the 17β-HSD2 activity was performed in the presence of 200 nM estrone, including 50 nCi of [2,4,6,7-^3H]-estradiol and 500 μM NAD+.  Figure 6 (A) Inhibition of 17β-HSD1 activity by parabens. 17β-HSD1 activity was measured in lysates of transiently-transfected HEK-293 cells, using DMSO as a negative, and apigenin as a positive, control. Statistical analyses were performed using one-way ANOVA followed by a Dunnett post-hoc test. […] (B) Concentration-dependent inhibition of 17β-HSD1 by [compound left out]- and heptylparaben. The conversion of estrone to estradiol was measured in lysates of HEK-293 cells transfected with 17β-HSD1 and (C) in intact human COV434 granulosa cells endogenously expressing 17β-HSD1. Results represent the mean ± SD of three independent experiments. To determine 17β-HSD1 activity in COV434 cells, cells were seeded (50,000) into 96-well plates and incubated for 90 min with 200 nM estrone, including 50 nCi of [2,4,6,7-^3H]-estrone in serum-free charcoal treated media containing either the inhibitor at the respective concentration or solvent (0.1% DMSO). Both activity essays were stopped by adding a 1:1 ratio of 2 mM unlabeled estrone and estradiol in methanol. Radiolabeled steroids were obtained from Perkin-Elmer (Boston, MA, USA) whereas normal steroids and cofactors were purchased from Sigma-Aldrich. Estrogens were separated by thin layer chromatography and samples were analyzed using scintillation counting. All data were collected from at least three independent measurements.

Test [2] deals with T2, 17β-hydroxysteroid dehydrogenase 2 (17β-HSD2) (Homo sapiens, UniProt P37059).
T2 construct: gene HSD17B2
T2 sequence (P37059 1-387): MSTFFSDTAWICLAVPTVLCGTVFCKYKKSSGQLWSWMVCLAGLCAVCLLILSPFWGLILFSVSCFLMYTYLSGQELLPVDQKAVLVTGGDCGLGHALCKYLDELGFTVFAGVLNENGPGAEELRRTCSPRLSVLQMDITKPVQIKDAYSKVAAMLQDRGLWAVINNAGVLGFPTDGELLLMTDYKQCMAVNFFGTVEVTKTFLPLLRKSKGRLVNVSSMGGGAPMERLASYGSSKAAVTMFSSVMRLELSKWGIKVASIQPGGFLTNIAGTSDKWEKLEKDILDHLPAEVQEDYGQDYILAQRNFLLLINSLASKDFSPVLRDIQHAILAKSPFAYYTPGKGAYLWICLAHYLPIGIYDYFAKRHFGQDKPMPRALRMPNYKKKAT
The test can be described thus: biochemical. The arrangement: species or system HEK-293 (transiently transfected); Radiolabeled estradiol to estrone conversion (200 nM, NAD+) in lysates of 17β-HSD2-transfected cells; TLC and scintillation counting. The method, then:
Lysate activity assays were performed as previously described. Briefly, HEK-293 cells (ATCC) were transiently transfected with expression constructs for human 17β-HSD1 or 17β-HSD2 using the calcium phosphate precipitation method. Lysates of HEK-293 cells expressing 17β-HSD1 or 17β-HSD2 were incubated at 37 °C for 10 min in TS2 buffer (100 mM NaCl, 1 mM EDTA, 1 mM EGTA, 250 mM sucrose, 1 mM MgCl2, 20 mM Tris-HCl, pH 7.4), containing either the inhibitor at the respective concentration or solvent (0.2% DMSO). 17β-HSD1 activity was determined in the presence of 200 nM estrone, including 50 nCi of [2,4,6,7-^3H]-estrone and 500 μM NADPH. Whereas, the 17β-HSD2 activity was performed in the presence of 200 nM estrone, including 50 nCi of [2,4,6,7-^3H]-estradiol and 500 μM NAD+.  Figure 4 (A) Inhibition of estrone formation by parabens in human embryonic kidney (HEK-293) cell lysates expressing human 17β-HSD2. The conversion of estradiol to estrone was measured in lysates of HEK-293 cells transiently transfected with 17β-HSD2 in the presence of 200 nM radiolabeled estradiol and parabens or paraben-like compounds at a final concentration of 20 µM. 17β-HSD2 inhibitor BM13 served as positive control (compound 22 in [18]). Statistical analyses were performed using one-way analysis of variance (ANOVA) test followed by a Dunnett post-hoc test. […] (B) Concentration-dependent inhibition of 17β-HSD2 by ethylparaben and ethyl vanillate. Results represent the mean ± standard deviation (SD) of three independent measurements. To determine 17β-HSD1 activity in COV434 cells, cells were seeded (50,000) into 96-well plates and incubated for 90 min with 200 nM estrone, including 50 nCi of [2,4,6,7-^3H]-estrone in serum-free charcoal treated media containing either the inhibitor at the respective concentration or solvent (0.1% DMSO). Both activity essays were stopped by adding a 1:1 ratio of 2 mM unlabeled estrone and estradiol in methanol. Radiolabeled steroids were obtained from Perkin-Elmer (Boston, MA, USA) whereas normal steroids and cofactors were purchased from Sigma-Aldrich. Estrogens were separated by thin layer chromatography and samples were analyzed using scintillation counting. All data were collected from at least three independent measurements.

Test [3] has as its target T1, 17β-hydroxysteroid dehydrogenase 1 (17β-HSD1). The test is described as follows: radiolabeled estrone to estradiol conversion in lysates of transfected HEK-293 cells; also intact COV434 cells (IC50 […]). The test is classed as biochemical.
The target in test [4] is T2, 17β-hydroxysteroid dehydrogenase 2 (17β-HSD2). The test is described as follows: radiolabeled estradiol conversion in lysates of transfected HEK-293 cells at […]; also significant at […]. The class given is cell-based. Particulars: HEK293.
Test [5] addresses T1, 17β-hydroxysteroid dehydrogenase 1 (17β-HSD1). The test can be described thus: radiolabeled estrone conversion in lysates of transfected HEK-293 cells, single concentration […]. The test is classed as cell-based. Conditions: HEK293.
Test [6] concerns the target T2, 17β-hydroxysteroid dehydrogenase 2 (17β-HSD2). The test is described as follows: radiolabeled estradiol conversion in lysates of transfected HEK-293 cells, single concentration […]. The test is classed as cell-based. Conditions: HEK293.
Test [7] has as its target T1, 17β-hydroxysteroid dehydrogenase 1 (17β-HSD1). The test can be described thus: radiolabeled estrone to estradiol conversion in lysates of transfected HEK-293 cells; also intact COV434 cells (IC50 […]). The test is classed as biochemical. The source holds these as a separate data set.
For test [8], the target named is T2, 17β-hydroxysteroid dehydrogenase 2 (17β-HSD2). The test can be described thus: radiolabeled estradiol to estrone conversion in lysates of HEK-293 cells transfected with human […]β-HSD2. The class given is biochemical.

As usually defined, the inhibition is the drop in the measured response relative to a control, in per cent. A low value points to a response near the control. Regarding `O=C(O)c1ccc(O)cc1` [p-hydroxybenzoic acid], the inhibition at 20 µM in test [1] stood at 7 ± 11%; in test [2], 0%.
What is called IC50 is the concentration at which inhibition is half-maximal. A low value points to greater potency in that assay. In test [3], `CCCCCCOC(=O)c1ccc(O)cc1` [6-P, hexylparaben] gave a 50% inhibitory concentration (IC50) of 2600 nM. Also, the inhibition at 20 µM in test [1] was determined as 80 ± 5%; in test [4], 58%.
In the case of `CC(C)COC(=O)c1ccc(O)cc1` [isobutylparaben], the results for the inhibition at 20 µM in test [5] and in test [2] were 65% and 53 ± 7%, respectively.
For the molecule `CC(C)OC(=O)c1ccc(O)cc1` [isopropylparaben], the inhibition at 20 µM amounted to 32 ± 9% in test [1] and 60 ± 1% in test [2].
As to `O=C(OCc1ccccc1)c1ccc(O)cc1` [benzylparaben], the inhibition at 20 µM in test [5] is 67%; in test [6], 64%.
On to `COC(=O)c1ccc(O)cc1` [methylparaben], for which the values for the inhibition at 20 µM in test [1] and in test [2] were 0% and 50 ± 6%, respectively.
`CCCCCCCOC(=O)c1ccc(O)cc1` [heptylparaben] yielded a concentration for half-maximal inhibition (IC50) in test [7] of 1800 nM. For the same molecule, the inhibition at 20 µM amounted to 76% in test [6] and 83 ± 6% in test [1].
As for `CCCOC(=O)c1ccc(O)cc1` [propylparaben], the results for the inhibition at 20 µM in test [1] and in test [2] were 37 ± 5% and 37 ± 6%, respectively.
Taken in the same sequence, the figures for `CCCCOC(=O)c1ccc(O)cc1` [butylparaben] were 52 ± 10% and 30 ± 7%.
Turning to `O=C(Oc1ccccc1)c1ccc(O)cc1` [phenylparaben], the inhibition at 20 µM in test [6] was 64%; in test [1] it was 35 ± 1%.
In the case of `CCOC(=O)c1ccc(O)cc1` [2-P, ethylparaben], the inhibition at 20 µM in test [1] was 7 ± 6%; in test [2] it was 74 ± 4%. Further, in test [8], the IC50 worked out at 4600 nM.
In the case of `CCOC(=O)c1ccc(O)c(OC)c1` [ethyl vanillate], the IC50 in test [8] stood at 1300 nM.

For the origin of these results see PMC5618656, “Interference of Paraben Compounds with Estrogen Metabolism by Inhibition of 17β-Hydroxysteroid Dehydrogenases” (International Journal of Molecular Sciences, 2017).
